Patent US12083115B2, “Methods for treating neurological symptoms associated with lysosomal storage diseases” (Genzyme Corporation, priority 2020, dated 2024)

How the values were obtained:
[1] = test system: GM3 expression in C32 human melanoma cells; test: GM3 fluorescent-linked immunosorbent assay (FLISA), C32; type: cell-based; conditions: 48 hours
From the text: (§1) Inhibition of glucosylceramide synthase activity can be measured with one or more assays. A first assay is a microsomal assay that directly measures the conversion of ceramide to glucosylceramide by HPLC. Microsomes are a source of glucosylceramide synthase activity in the microsomal assay. A second assay is a cell based, phenotypic assay that monitors cell surface expression of the downstream lipid GM3 by antibody mediated immunofluorescence. Specific protocols are provided below.
(§2) This is a phenotypic assay that measures GM3 expression in B16 mouse melanoma or C32 human melanoma cells following treatment with test compounds. Cell surface GM3 expression is determined by antibody mediated fluorescence.
(§3) Compounds are diluted in media and plated in 384 well plates in DMSO. B16 and C32 cells are assayed at densities of 20,000 cells/ml and 62,500 cells/ml, respectively, per well. Each titration curve contains 10 points that are assayed in duplicate on each test run. The plates are incubated for 48 hours at 37° C., 5% CO2, and are then washed once with TBS. Anti-GM3 antibody is added to each well and the plates are then incubated for an additional one hour at room temperature. Plates are subsequently washed twice and incubated for an additional hour with the labeled secondary antibody. Following the final incubation, the plates are washed twice and the fluorescence at λex=D640/20 nm and λem=657 nm is detected on a fluorescent reader.
(§4) The results of the microsomal assays are expressed as “GCS IC50,” which represents the concentration of the compound causing 50% inhibition of glucosylceramide synthase activity. The results of the cell-based assays are expressed as “GM3 B16 IC50” or “GM3 C32 IC50” for the B16 assay and the C32 assay, respectively. These values represent the concentration of the compound causing 50% inhibition of GM3 expression on the cell surface.

[2] = test system: GM3 expression in B16 mouse melanoma cells; test: GM3 fluorescent-linked immunosorbent assay (FLISA), B16; type: cell-based; conditions: 48 hours
From the text: as §1, §2, §3, §4

[3] = target: glucosylceramide synthase (Homo sapiens (Human), UniProt Q16739); test: Glucosylceramide synthase activity microsomal assay; type: biochemical; conditions: microsomes from A375 human melanoma cells; read-out: GCS IC50
glucosylceramide synthase, sequence (Q16739 whole entry): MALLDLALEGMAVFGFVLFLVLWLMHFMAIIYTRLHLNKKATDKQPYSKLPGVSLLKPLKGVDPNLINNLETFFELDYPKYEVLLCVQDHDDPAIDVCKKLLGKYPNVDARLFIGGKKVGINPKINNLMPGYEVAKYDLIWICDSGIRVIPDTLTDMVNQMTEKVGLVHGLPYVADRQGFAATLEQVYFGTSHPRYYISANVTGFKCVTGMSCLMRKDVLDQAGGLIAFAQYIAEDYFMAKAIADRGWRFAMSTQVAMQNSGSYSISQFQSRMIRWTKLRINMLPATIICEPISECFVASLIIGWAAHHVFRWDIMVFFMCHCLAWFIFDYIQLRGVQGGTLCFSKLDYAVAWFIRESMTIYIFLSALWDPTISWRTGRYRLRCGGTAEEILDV
From the text: as §1
An enzyme assay using microsomes as a source of glucosylceramide synthase activity. Fluorescent ceramide substrate is delivered to membrane-bound enzyme as a complex with albumin. After reaction, ceramide and glucosylceramide are separated and quantitated by reverse-phase HPLC with fluorescence detection. Enzymatic activity is assessed using a fluorescent labeled substrate and microsomes as a source of glucosylceramide synthase. C6-NBD-Ceramide is complexed with albumin for delivery to microsomes that are isolated according to the procedure described below. The final concentration of C6-NBD-Ceramide in the stock solution is 0.5 mM; the final concentration of BSA is 0.5 mM. Separation and quantitation of substrate and product (glucosylceramide) are achieved by reverse-phase HPLC with fluorescence detection.
Microsomes are isolated from A375 human melanoma cells. Eight to ten million cells are harvested by trypsinization and washed with ice cold PBS. Cells are resuspended in ice-cold lysis buffer containing protease inhibitors. Cell lysate is sonicated on ice using a probe sonicator. After sonication, the cell lysate is separated from debris by centrifugation at 10,000 g for 10 minutes at 4° C. The supernatant is removed and cleared by additional centrifugation at 100,000 g for 1 hour at 4° C. The pellet is then resuspended in the lysis buffer, aliquoted, and stored at −80° C. prior to use.
The reaction is stopped by the addition of 150 μL of 100 μM C8-ceramide in 50% aq. isopropanol; 10 μL of the final mix is analyzed on HPLC (with fluorescence detector). […] Fluorescence is detected with λex=470 nm and λem=530 nm. […] Both peaks are separated from each other and the baseline and were integrated automatically by the HPLC software. The percent conversion of substrate to product is used as the readout for inhibitor testing. […]

[4] = test system: neurological manifestations of GD-3; conditions: cited from earlier work

| Structure (SMILES) | IC50 [1] | IC50 [2] | IC50 [3] | treatment of the neurological manifestations of GD-3 ([4]; clinical trials) | crossing of the blood-brain barrier ([4]; human, in vivo) |
| --- | --- | --- | --- | --- | --- |
| COCCOc1ccc(-c2ccc(C(C)(C)NC(=O)OC3CN4CCC3CC4)nc2)cc1 (centres unmarked) [Compound 21, Quinuclidin-3-yl 2-(5-(4-(2-methoxyethoxy)phenyl)pyridin-2-yl)propan-2-ylcarbamate] | 11.1 µM | 266 µM | 50.6 µM |  |  |
| CC(C)(NC(=O)O[C@@H]1CN2CCC1CC2)c1ccc(-c2ccccc2)cc1 [Compound 5, (S)-quinuclidin-3-yl 2-(biphenyl-4-yl)propan-2-ylcarbamate] | 0.3 µM | 19.3 µM | 1.2 µM |  |  |
| CC(C)(NC(=O)OC1CN2CCC1CC2)c1ccc(-c2ccc(OCCCC#N)cc2)cc1 (centres unmarked) [Compound 22, Quinuclidin-3-yl (2-(4′-(3-cyanopropoxy)-[1,1′-biphenyl]-4-yl)propan-2-yl)carbamate] | 3.2 µM | 86.5 µM | 9.6 µM |  |  |
| O=C(NC1(c2ccc(-c3ccc(F)cc3F)cc2)CC1)O[C@@H]1CN2CCC1CC2 [Compound 8, (S)-1-azabicyclo[2.2.2]oct-3-yl [1-(2′,4′-difluorobiphenyl-4-yl)cyclopropyl]carbamate] | 0.4 µM | 7.5 µM | 1 µM |  |  |
| O=C(NC1(c2ccc(-c3ccc(F)cc3)cc2)CC1)O[C@@H]1CN2CCC1CC2 [Compound 7, (S)-quinuclidin-3-yl 1-(4′-fluorobiphenyl-4-yl)cyclopropylcarbamate] | 0.4 µM | 8.1 µM | 1.4 µM |  |  |
| O=C(NC1(c2ccc(-c3ccccc3)cc2)CC1)OC1CN2CCC1CC2 (centres unmarked) [Compound 6, Quinuclidin-3-yl 1-(biphenyl-4-yl)cyclopropylcarbamate] | 0.6 µM | 18.1 µM | 2.8 µM |  |  |
| CC(C)(NC(=O)O[C@@H]1CN2CCC1CC2)c1cc(-c2ccc(F)cc2)ns1 [Compound 11, (S)-quinuclidin-3-yl 2-(3-(4-fluorophenyl)isothiazol-5-yl)propan-2-ylcarbamate] | 1.8 µM | 81.9 µM | 14.9 µM |  |  |
| CC(C)(NC(=O)OC1CN2CCC1CC2)c1cccc(-c2ccc(F)cc2)c1 (centres unmarked) [Compound 1, Quinuclidin-3-yl (2-(4′-fluoro-[1,1′-biphenyl]-3-yl)propan-2-yl)carbamate] | 2.1 µM | 15.6 µM | 1.9 µM |  |  |
| COCCCOc1ccc(-c2nc(C(C)(C)NC(=O)OC3CN4CCC3CC4)cs2)cc1 (centres unmarked) [Compound 19, Quinuclidin-3-yl (2-(2-(4-(3-methoxypropoxy)phenyl)thiazol-4-yl)propan-2-yl)carbamate] | 42.6 µM | 197 µM | 170 µM |  |  |
| COCCOc1cccc(-c2ccc(C(C)(C)NC(=O)O[C@@H]3CN4CCC3CC4)cc2)c1 [Compound 14, (S)-quinuclidin-3-yl (2-(3′-(2-methoxyethoxy)-[1,1′-biphenyl]-4-yl)propan-2-yl)carbamate] | 5.3 µM | 110 µM | 10.4 µM |  |  |
| CC(C)(NC(=O)O[C@@H]1CN2CCC1CC2)c1nc(-c2ccc(F)cc2)cs1 [Compound 12, (S)-quinuclidin-3-yl 2-(4-(4-fluorophenyl)thiazol-2-yl)propan-2-ylcarbamate] | 3.7 µM | 87.8 µM | 20.3 µM |  |  |
| CCCCN1C[C@H](O)[C@@H](O)[C@H](O)[C@H]1CO [miglustat] |  |  |  | ineffective | does cross the blood-brain barrier |
| COc1ccc(-c2ccc(C3(NC(=O)OC4CN5CCC4CC5)CC3)cc2)cc1 (centres unmarked) [Compound 9, 1-azabicyclo[2.2.2]oct-3-yl [1-(4′-methoxybiphenyl-4-yl)cyclopropyl]carbamate] | 0.4 µM | 16.8 µM | 1.4 µM |  |  |
| COCCOc1ccc(-c2ccc(C(C)(C)NC(=O)OC3CN4CCC3CC4)cc2)cc1 (centres unmarked) [Compound 13, Quinuclidin-3-yl (2-(4′-(2-methoxyethoxy)-[1,1′-biphenyl]-4-yl)propan-2-yl)carbamate] | 0.7 µM | 38.6 µM | 3.5 µM |  |  |
| COCCOc1ccc(-c2cccc(C(C)(C)NC(=O)OC3CN4CCC3CC4)c2)cc1 (centres unmarked) [Compound 15, Quinuclidin-3-yl (2-(4′-(2-methoxyethoxy)-[1,1′-biphenyl]-3-yl)propan-2-yl)carbamate] | 4.9 µM | 29.5 µM | 26.7 µM |  |  |
| CC(C)(NC(=O)OC1CN2CCC1CC2)c1ccc(-c2ccc(OCC#N)cc2)cc1 (centres unmarked) [Compound 23, Quinuclidin-3-yl (2-(4′-(cyanomethoxy)-[1,1′-biphenyl]-4-yl)propan-2-yl)carbamate] | 0.8 µM | 47.7 µM | 2.6 µM |  |  |
| CC(C)(NC(=O)OC1CN2CCC1CC2)c1csc(-c2ccc(F)cc2)c1 (centres unmarked) [Compound 10, Quinuclidin-3-yl 2-(5-(4-fluorophenyl)thiophen-3-yl)propan-2-ylcarbamate] | 2.2 µM | 21.3 µM | 6.4 µM |  |  |
| COCCOc1ccc(-c2ccc(C(C)(C)NC(=O)O[C@@H]3CN4CCC3CC4)cc2)cc1 [Compound 3, (S)-quinuclidin-3-yl (2-(4′-(2-methoxyethoxy)-[1,1′-biphenyl]-4-yl)propan-2-yl)carbamate] | 1.31 µM | 43.7 µM | 4.14 µM |  |  |
| COCCOc1ccc(-c2nc(C(C)(C)NC(=O)OC3CN4CCC3CC4)cs2)cc1 (centres unmarked) [Compound 20, Quinuclidin-3-yl (2-(2-(4-(2-methoxyethoxy)phenyl)thiazol-4-yl)propan-2-yl)carbamate] | 19.8 µM | 106 µM | 360 µM |  |  |
| COCCCOc1ccc(-c2ccc(C(C)(C)NC(=O)OC3CN4CCC3CC4)cc2)cc1 (centres unmarked) [Compound 16, Quinuclidin-3-yl (2-(4′-(3-methoxypropoxy)-[1,1′-biphenyl]-4-yl)propan-2-yl)carbamate] | 1.6 µM | 66.6 µM | 2.4 µM |  |  |
| CC(C)(NC(=O)OC1CN2CCC1CC2)c1cccc(-c2ccccc2)c1 (centres unmarked) [Compound 4, 1-azabicyclo[2.2.2]oct-3-yl [2-(biphenyl-3-yl)propan-2-yl]carbamate] | 0.8 µM | 11.6 µM | 1.5 µM |  |  |
| CC(C)(NC(=O)OC1CN2CCC1CC2)c1ccc(-c2ccc(CCO)cc2)cc1 (centres unmarked) [Compound 18, Quinuclidin-3-yl (2-(4′-(2-hydroxyethyl)-[1,1′-biphenyl]-4-yl)propan-2-yl)carbamate] | 22.3 µM | 656 µM | 148 µM |  |  |
| CC(C)(NC(=O)OC1CN2CCC1CC2)c1ccc(-c2ccc(CO)cc2)cc1 (centres unmarked) [Compound 17, Quinuclidin-3-yl (2-(4′-(hydroxymethyl)-[1,1′-biphenyl]-4-yl)propan-2-yl)carbamate] | 21.6 µM | 879 µM | 454 µM |  |  |
